We go through 26 compounds from patent publication US9249102B2 (priority 2012, dated 2016).

The subject of this experiment is Haemonchus contortus. Briefly: Method A: Haemonchus contortus L1 larvae, microtitre plate screen. As to conditions: 96 h, read-out: motility inhibition.
For the compound `O=C(CO[C@H]1CC[C@H](Nc2ccc([N+](=O)[O-])c(C(F)(F)F)c2)CC1)N1CCN(Cc2oc3ccc(Cl)cc3c2Cl)CC1` [Compound 316, 1-[4-(3,5-dichloro-benzofuran-2-ylmethyl)-piperazin-1-yl]-2-[4-(4-nitro-3-trifluoromethyl-phenylamino)-cyclohexyloxy]-ethanone], the inhibition at 5 µg/mL is not below 90%.
The figure for `CN(c1ccc(C#N)c(C(F)(F)F)c1)[C@H]1CC[C@H](OCC(=O)N2CCN(c3ccc4cc(F)ccc4c3)CC2)CC1` [Compound 293, 4-[(4-{2-[4-(6-fluoro-naphthalen-2-yl)-piperazin-1-yl]-2-oxo-ethoxy}-cyclohexyl)-methyl-amino]-2-trifluoromethyl-benzonitrile] is not below 90%; for `O=C(CO[C@H]1CC[C@H](Nc2ccc([N+](=O)[O-])c(C(F)(F)F)c2)CC1)N1CCN(Cc2cc3cc(Cl)cc(Cl)c3o2)CC1` [Compound 319, 2-[(4-[[4-nitro-3-(trifluoromethyl)phenyl]amino]cyclohexyl)-oxy]1-[4-(5,7-dichlorobenzofuran-2-ylmethyl)piperazin-1-yl]ethan-1-one] it is not below 90%.
The figure for `CC(CN1CCN(c2ccc3ccccc3n2)CC1)C(=O)N1CCC(Nc2ccc([N+](=O)[O-])c(C(F)(F)F)c2)CC1` (centres unmarked) [Compound 91, 2-methyl-1-(4-[[4-nitro-3-(trifluoromethyl)phenyl]amino]piperidin-1-yl)-3-[4-(quinolin-2-yl)piperazin-1-yl]propan-1-one] is not below 90%.
The figure for `O=C(CO[C@H]1CC[C@H](Nc2ccc([N+](=O)[O-])c(C(F)(F)F)c2)CC1)N1CCN(Cc2oc3ccc(F)cc3c2Cl)CC1` [Compound 312, 1-[4-(3-chloro-5-fluoro-benzofuran-2-ylmethyl)-piperazin-1-yl]-2-[4-(4-nitro-3-trifluoromethyl-phenylamino)-cyclohexyloxy]-ethanone] is not below 90%.
For `CC(Cc1cc2cc(C(F)(F)F)ccc2o1)N1CCN(C(=O)CO[C@H]2CC[C@H](Nc3ccc([N+](=O)[O-])c(C(F)(F)F)c3)CC2)CC1` (some centres unmarked) [Compound 330, 1-[4-[1-methyl-2-[5-(trifluoromethyl)benzofuran-2-yl]ethyl]piperazin-1-yl]-2-[4-[4-nitro-3-(trifluoromethyl)anilino]cyclohexoxy]ethanone], the inhibition at 5 µg/mL is not below 90%.
Regarding `O=C(CO[C@H]1CC[C@H](Nc2ccc([N+](=O)[O-])c(C(F)(F)F)c2)CC1)N1CCN(C(=O)c2nc3cc(C(F)(F)F)ccc3s2)CC1` [Compound 338, 2-[(4-[[4-nitro-3-(trifluoromethyl)phenyl]amino]cyclohexyl)-oxy]1-[4-[5-(trifluoromethyl)benzothiazole-2-carbonyl]piperazin-1-yl]ethan-1-one], the inhibition at 5 µg/mL was not below 90%.
The figure for `O=C(NCCO[C@H]1CC[C@H](Nc2ccc([N+](=O)[O-])c(C(F)(F)F)c2)CC1)C(=O)Nc1ccc2cc(C(F)(F)F)ccc2n1` [Compound 240, N^1-(2-(-4-(4-nitro-3-(trifluoromethyl)phenylamino)cyclohexyloxy)ethyl)-N^2-(6-(trifluoromethyl)quinolin-2-yl)oxalamide] is not below 90%; for `CC(CN1CCN(c2ccc3cc(F)ccc3c2)CC1)C(=O)N1CCC(Nc2ccc([N+](=O)[O-])c(C(F)(F)F)c2)CC1` (centres unmarked) [Compound 16, 3-[4-(6-fluoronaphthalen-2-yl)piperazin-1-yl]-2-methyl-1-(4-[[4-nitro-3-(trifluoromethyl)phenyl]amino]piperi-din-1-yl)propan-1-one] it is not below 90%.
For `O=C(CO[C@H]1CC[C@H](Nc2ccc([N+](=O)[O-])c(C(F)(F)F)c2)CC1)N1CCN(c2ccc3cc(Br)ccc3c2)CC1` [Compound 268, 1-[4-(6-bromo-naphthalen-2-yl)-piperazin-1-yl]-2-[4-(4-nitro-3-trifluoromethyl-phenylamino)-cyclohexyloxy]-ethanone], the inhibition at 5 µg/mL is not below 90%.
In the case of `O=C(COc1ccc(Nc2ccc([N+](=O)[O-])c(C(F)(F)F)c2)cc1)N1CCN(CC2Cc3cc(Cl)ccc3O2)CC1` (centres unmarked) [Compound 68, 1-[4-[(5-chloro-2,3-dihydro-1-benzofuran-2-yl)methyl]piperazin-1-yl]-2-(4-[[4-nitro-3-(trifluoromethyl)phenyl]amino]phenoxy)ethan-1-one] it was not below 90%; in that of `O=C(CO[C@H]1CC[C@H](Nc2ccc([N+](=O)[O-])c(C(F)(F)F)c2)CC1)N1CCN(CCc2cc3cc(C(F)(F)F)ccc3o2)CC1` [Compound 324, 2-[4-[4-nitro-3-(trifluoromethyl)anilino]cyclohexoxy]-1-[4-[2-[5-(trifluoromethyl)benzofuran-2-yl]ethyl]piperazin-1-yl]ethanone], not below 90%; in that of `O=C(COc1ccc(Nc2ccc([N+](=O)[O-])c(C(F)(F)F)c2)cc1)N1CCN(C(=O)c2cc3cc(C(F)(F)F)ccc3o2)CC1` [Compound 191, 2-(4-[[4-nitro-3-(trifluoromethyl)phenyl]amino]phenoxy)-1-(4-[[5-(trifluoromethyl)-1-benzofuran-2-yl]carbonyl]piperazin-1-yl)ethan-1-one], not below 90%.
In the case of `O=C(CO[C@H]1CC[C@H](Nc2ccc([N+](=O)[O-])c(C(F)(F)F)c2)CC1)N1CCN(Cc2cc3cc(F)cc(F)c3o2)CC1` [Compound 375] it was not below 90%.
In the case of `C[C@@H]1CN(Cc2nc3cc(C(F)(F)F)ccc3s2)[C@@H](C)CN1C(=O)CO[C@H]1CC[C@H](Nc2ccc([N+](=O)[O-])c(C(F)(F)F)c2)CC1` [Compound 365, 1-[(2R,5S)-2,5-dimethyl-4-(5-trifluoromethyl-benzothiazol-2-ylmethyl)-piperazin-1-yl]-2-[4-(4-nitro-3-trifluoromethyl-phenylamino)-cyclohexyloxy]-ethanone] it was not below 90%; in that of `N#Cc1ccc(N[C@H]2CC[C@H](OCC(=O)N3CCN(C(=O)C4Cc5cc(Cl)ccc5O4)CC3)CC2)cc1C(F)(F)F` (some centres unmarked) [Compound 85, 4-(4-{2-[4-(5-chloro-2,3-dihydro-benzofuran-2-carbonyl)-piperazin-1-yl]-2-oxo-ethoxy}-cyclohexylamino)-2-trifluoromethyl-benzonitrile], not below 90%.
Consider `C[C@@H]1CN(Cc2nc3cc(F)ccc3s2)[C@@H](C)CN1C(=O)CO[C@H]1CC[C@H](Nc2ccc([N+](=O)[O-])c(C(F)(F)F)c2)CC1` [Compound 370, 1-[(2R,5S)-4-(5-fluoro-benzothiazol-2-ylmethyl)-2,5-dimethyl-piperazin-1-yl]-2-[4-(4-nitro-3-trifluoromethyl-phenylamino)-cyclohexyloxy]-ethanone], for which the inhibition at 5 µg/mL is not below 90%.
In the case of `N#Cc1ccc(N[C@H]2CC[C@H](OCC(=O)N3CCN(Cc4nc5cc(Cl)ccc5o4)CC3)CC2)cc1C(F)(F)F` [Compound 288, 2-[(4-[[4-cyano-3-(trifluoromethyl)phenyl]amino]cyclohexyl)-oxy]1-[4-(5-chlorobenzoxazol-2-ylmethyl)piperazin-1-yl]ethan-1-one] it was not below 90%.
The figure for `O=C(COC1CCC(Oc2ccc([N+](=O)[O-])c(C(F)(F)F)c2)CC1)N1CCN(Cc2nc3cc(C(F)(F)F)ccc3s2)CC1` (centres unmarked) [Compound 311, 2-[4-(4-nitro-3-trifluoromethyl-phenoxy)-cyclohexyloxy]-1-[4-(5-trifluoromethyl-benzothiazol-2-ylmethyl)-piperazin-1-yl]-ethanone] is not below 90%.
For the compound `O=C(CO[C@H]1CC[C@H](Nc2ccc([N+](=O)[O-])c(C(F)(F)F)c2)CC1)N1CCN(c2nc3cc(OC(F)(F)F)ccc3o2)CC1` [Compound 401, 2-[4-(4-nitro-3-trifluoromethyl-phenylamino)-cyclohexyloxy]-1-[4-(5-trifluoromethoxy-benzooxazol-2-yl)-piperazin-1-yl]-ethanone], the inhibition at 5 µg/mL was not below 90%.
`N#Cc1ccc(N[C@H]2CC[C@H](OCC(=O)N3CCN(Cc4oc5ccc(F)cc5c4Cl)CC3)CC2)cc1C(F)(F)F` [Compound 313, 4-(4-{2-[4-(3-chloro-5-fluoro-benzofuran-2-ylmethyl)-piperazin-1-yl]-2-oxo-ethoxy}-cyclohexylamino)-2-trifluoromethyl-benzonitrile]: the inhibition at 5 µg/mL is not below 90%.
In the case of `O=[N+]([O-])c1ccc(N[C@H]2CC[C@H](OCC(=S)N3CCN(c4ccc5cc(F)ccc5n4)CC3)CC2)cc1C(F)(F)F` [Compound 264, 1-[4-(6-fluoro-quinolin-2-yl)-piperazin-1-yl]-2-[4-(4-nitro-3-trifluoro-methyl-phenylamino)-cyclohexyloxy]-ethanethione] it was not below 90%.
The figure for `N#Cc1ccc(N[C@H]2CC[C@H](OCC(=O)N3CCN(C(=O)C4Cc5cc(F)ccc5O4)CC3)CC2)cc1C(F)(F)F` (some centres unmarked) [Compound 86, 4-(4-{2-[4-(5-fluoro-2,3-dihydro-benzofuran-2-carbonyl)-piperazin-1-yl]-2-oxo-ethoxy}-cyclohexylamino)-2-trifluoromethyl-benzonitrile] is not below 90%.
In the case of `O=C(NCCO[C@H]1CC[C@H](Nc2ccc([N+](=O)[O-])c(C(F)(F)F)c2)CC1)C(=O)Nc1ccc2ccccc2n1` [Compound 238, N^1-(2-(-4-(4-nitro-3-(trifluoromethyl)phenylamino)cyclohexyloxy)ethyl)-N^2-(quinolin-2-yl)oxalamide] it was not below 90%; in that of `O=C(CO[C@H]1CC[C@H](Nc2ccc([N+](=O)[O-])c(C(F)(F)F)c2)CC1)N1CCN(Cc2cc3c(Cl)cc(Cl)cc3o2)CC1` [Compound 318, 2-[(4-[[4-nitro-3-(trifluoromethyl)phenyl]amino]cyclohexyl)-oxy]1-[4-(4,6-dichlorobenzofuran-2-ylmethyl)piperazin-1-yl]ethan-1-one], not below 90%; in that of `O=C(CO[C@H]1CC[C@H](Nc2ccc([N+](=O)[O-])c(C(F)(F)F)c2)CC1)N1CCN(c2ccc3cc(Br)ccc3c2F)CC1` [Compound 267, 1-[4-(6-bromo-1-fluoro-naphthalen-2-yl)-piperazin-1-yl]-2-[4-(4-nitro-3-trifluoromethyl-phenylamino)-cyclohexyloxy]-ethanone], not below 90%.

One may read the inhibition as the percentage by which the read-out fell short of the control.
